Assay results: PubChem BioAssay (NCI)
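Following 48 hours of exposure in 96-well plates, responses at five concentrations were used to interpolate endpoints linearly. TGI marks complete inhibition of growth.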

What was measured:
Assay in all cases: growth of human tumour cells (NCI), 48 h
A498 renal = tested on: A498 renal
A549 NSCLC = tested on: A549 NSCLC
ACHN renal = tested on: ACHN renal
BT-549 breast = tested on: BT-549 breast
EKVX NSCLC = tested on: EKVX NSCLC
HOP-92 NSCLC = tested on: HOP-92 NSCLC
M14 melanoma = tested on: M14 melanoma
MDA-N = tested on: MDA-N
OVCAR-3 ovarian = tested on: OVCAR-3 ovarian
PC-3 prostate = tested on: PC-3 prostate
SF-268 CNS = tested on: SF-268 CNS

Row | SMILES | TGI (A498 renal) [µM] | TGI (A549 NSCLC) [µM] | TGI (ACHN renal) [µM] | TGI (BT-549 breast) [µM] | TGI (EKVX NSCLC) [µM] | TGI (HOP-92 NSCLC) [µM] | TGI (M14 melanoma) [µM] | TGI (MDA-N) [µM] | TGI (OVCAR-3 ovarian) [µM] | TGI (PC-3 prostate) [µM] | TGI (SF-268 CNS) [µM]
1 | CC(C)[C@H](NC(=O)[C@H](N)Cc1ccc(N(CCCl)CCCl)cc1)C(=O)O | > 100 | > 100 | > 100 | > 100 | > 100 | > 100 | > 100 | > 100 | > 100 | > 100 | > 100
2 | CCOc1ccc(N/C(=C(/C(Cl)=C(/Cl)N2CCCCC2)[N+](=O)[O-])n2nnc3ccccc32)cc1 | 34.9 | 62.9 | 36 | 34.6 | 36.9 | 42 | 38.2 | 52.4 | 33.7 | 26.1 | 37.4
3 | C=CCN(C(=O)OC(C)(C)C)[C@H](C)C(=O)N[C@@H](C)C(=O)OC | > 100 | > 100 | > 100 | > 100 | > 100 | > 100 | > 100 | > 100 | > 100 | > 100 | > 100
4 | C/C=C(\C)C(O)C(C)C(O)C/C=C(C)/C=C(\C)C/C(C)=C/C/C=C(\C)C(O)C(C)c1ccc(CCC)c(=O)o1 (configuration not stated) | 50.6 | 27.8 | 53.2 | 25 | > 100 | 44 | 28.4 | 22.8 | 27.8 | 21.3 | 37.5
5 | COC(=O)C(Cc1c[nH]c2ccccc12)NC(=O)c1ccc(-c2ccc(Cl)cc2Cl)o1 (configuration not stated) | 67.9 | > 100 | > 100 | > 100 | > 100 | 71.4 | > 100 | > 100 | > 100 | 49.5 | > 100
6 | CC1(C)OC(=O)N(c2ccccc2)C12C=Cc1cccc([N+](=O)[O-])c1O2 (configuration not stated) | > 100 | > 100 | > 100 | > 100 | > 100 | > 100 | > 100 | > 100 | > 100 | > 100 | > 100
7 | CC(C)=CCC/C(C)=C/CC/C(C)=C/CC/C(C)=C/CC/C(C)=C/CC/C(C)=C/CC/C(C)=C/CC/C(C)=C/CC/C(C)=C/CO | > 100 | > 100 | > 100 | > 100 | > 100 | > 100 | > 100 | > 100 | > 100 | > 100 | > 100
